Assay results published in US20220112187A1, “PYRAZOLOPYRIDINE AMINE COMPOUNDS FOR THE TREATMENT OF AUTOIMMUNE DISEASE” (Hoffmann-La Roche Inc., priority 2018, published 2022).

These compounds were tested against T1, human TLR7 (Homo sapiens, UniProt Q9NYK1) (assay: HEK293-Blue-hTLR-7 cells assay (SEAP reporter, R848 stimulation)). Conditions: HEK293-Blue-hTLR7 cells, R848 ligand, 20 hrs incubation.
T1 sequence (Q9NYK1 27-1049): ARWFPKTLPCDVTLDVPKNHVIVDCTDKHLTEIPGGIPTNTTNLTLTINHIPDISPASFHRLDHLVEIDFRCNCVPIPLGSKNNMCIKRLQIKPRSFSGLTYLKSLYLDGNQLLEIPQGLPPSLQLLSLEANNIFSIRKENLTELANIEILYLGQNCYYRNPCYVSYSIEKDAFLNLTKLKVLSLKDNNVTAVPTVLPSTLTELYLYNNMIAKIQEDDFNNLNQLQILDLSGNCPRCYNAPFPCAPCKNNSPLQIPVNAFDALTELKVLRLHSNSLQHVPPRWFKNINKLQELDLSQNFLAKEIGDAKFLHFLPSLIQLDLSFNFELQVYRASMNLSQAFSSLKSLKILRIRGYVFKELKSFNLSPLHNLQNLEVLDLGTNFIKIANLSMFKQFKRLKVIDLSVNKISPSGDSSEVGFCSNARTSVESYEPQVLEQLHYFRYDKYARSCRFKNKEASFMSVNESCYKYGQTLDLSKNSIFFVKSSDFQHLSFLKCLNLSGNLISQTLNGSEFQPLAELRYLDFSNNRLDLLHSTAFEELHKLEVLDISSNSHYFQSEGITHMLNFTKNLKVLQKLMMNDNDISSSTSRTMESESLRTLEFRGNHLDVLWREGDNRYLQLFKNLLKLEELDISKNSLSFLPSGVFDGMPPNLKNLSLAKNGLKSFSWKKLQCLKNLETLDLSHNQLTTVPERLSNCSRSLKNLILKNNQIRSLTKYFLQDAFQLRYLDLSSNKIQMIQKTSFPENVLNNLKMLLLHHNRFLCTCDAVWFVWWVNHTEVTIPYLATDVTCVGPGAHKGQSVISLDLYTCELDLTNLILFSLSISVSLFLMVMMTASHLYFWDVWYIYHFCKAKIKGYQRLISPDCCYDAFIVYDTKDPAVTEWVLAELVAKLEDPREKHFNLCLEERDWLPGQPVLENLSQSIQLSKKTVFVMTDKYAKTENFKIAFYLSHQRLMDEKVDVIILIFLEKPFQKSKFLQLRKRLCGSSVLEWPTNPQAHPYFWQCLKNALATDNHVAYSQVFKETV
Type: cell-based
From the text: A stable HEK293-Blue-hTLR-7 cell line was purchased from InvivoGen (Cat. #: hkb-htlr7, San Diego, Calif., USA). These cells were originally designed for studying the stimulation of human TLR7 by monitoring the activation of NF-κB. A SEAP (secreted embryonic alkaline phosphatase) reporter gene was placed under the control of the IFN-β minimal promoter fused to five NF-κB and AP-1-binding sites. The SEAP was induced by activating NF-κB and AP-1 via stimulating HEK-Blue hTLR7 cells with TLR7 ligands. Therefore the reporter expression was declined by TLR7 antagonist under the stimulation of a ligand, such as R848 (Resiquimod), for incubation of 20 hrs. The cell culture supernatant SEAP reporter activity was determined using QUANTI-Blue™ kit (Cat. #: rep-qb1, Invivogen, San Diego, Ca, USA) at a wavelength of 640 nm, a detection medium that turns purple or blue in the presence of alkaline phosphatase.
HEK293-Blue-hTLR7 cells were incubated at a density of 250,000˜450,000 cells/mL in a volume of 170 μL in a 96-well plate in Dulbecco's Modified Eagle's medium (DMEM) containing 4.5 g/L glucose, 50 U/mL penicillin, […], […], 2 mM L-glutamine, 10% (v/v) heat-inactivated fetal bovine serum with addition of 20 μL test compound in a serial dilution in the presence of final DMSO at 1% and 10 μL of 20 uM R848 in above DMEM, perform incubation under 37° C. in a CO2 incubator for 20 hrs. Then 20 μL of the supernatant from each well was incubated with 180 μL Quanti-blue substrate solution at 37° C. for 2 hrs and the absorbance was read at 620˜655 nm using a spectrophotometer. The signalling pathway that TLR7 activation leads to downstream NF-κB activation has been widely accepted, and therefore similar reporter assay was modified for evaluating TLR7 antagonist.
C[C@@H]1CN(c2ccc(C#N)n3nccc23)C[C@H](CN2CCC3(CCCNC3)CC2)O1 [Example 27, 4-[(2S,6R)-2-(2,9-diazaspiro[5.5]undecan-9-ylmethyl)-6-methyl-morpholin-4-yl]pyrazolo[1,5-a]pyridine-7-carbonitrile] gave an IC50 of 0.13 µM.
In the case of CC1CN(C[C@H]2CN(c3ccc(C#N)n4nccc34)C[C@@H](C)O2)CCN1 (stereo partly drawn) [Example 28, 4-[(2R,6S)-2-methyl-6-[(3-methylpiperazin-1-yl)methyl]morpholin-4-yl]pyrazolo[1,5-a]pyridine-7-carbonitrile], the IC50 is reported as 0.044 µM.
C[C@@H]1CN(c2ccc(C#N)n3nccc23)C[C@H](CN2CCC(C)(N)CC2)O1 [Example 29, 4-[(2S,6R)-2-[(4-amino-4-methyl-1-piperidyl)methyl]-6-methyl-morpholin-4-yl]pyrazolo[1,5-a]pyridine-7-carbonitrile] was tested, and the IC50 was 0.076 µM.
C[C@@H]1CN(c2ccc(C#N)n3nccc23)C[C@H](CN2CC3CCC2CN3)O1 (stereo partly drawn) [Example 30, 4-[(2S,6R)-2-(2,5-diazabicyclo[2.2.2]octan-2-ylmethyl)-6-methyl-morpholin-4-yl]pyrazolo[1,5-a]pyridine-7-carbonitrile] showed an IC50 of 0.046 µM.
C[C@@H]1CN(c2ccc(C#N)n3nccc23)C[C@H](CN2CC3CCC(C2)N3)O1 [Example 31, 4-[(2S,6R)-2-(3,8-diazabicyclo[3.2.1]octan-3-ylmethyl)-6-methyl-morpholin-4-yl]pyrazolo[1,5-a]pyridine-7-carbonitrile] was tested, and the IC50 was 0.053 µM.
In the case of C[C@@H]1CN(c2ccc(C#N)n3nccc23)C[C@H](CN2CCCC3(CCNCC3)C2)O1 [Example 32, 4-[(2S,6R)-2-(2,9-diazaspiro[5.5]undecan-2-ylmethyl)-6-methyl-morpholin-4-yl]pyrazolo[1,5-a]pyridine-7-carbonitrile], the IC50 is reported as 0.41 µM.
C[C@@H]1CN(c2ccc(C#N)n3nccc23)C[C@H](CN2CCCC3(CNC3)C2)O1 [Example 33, 4-[(2S,6R)-2-(2,6-diazaspiro[3.5]nonan-6-ylmethyl)-6-methyl-morpholin-4-yl]pyrazolo[1,5-a]pyridine-7-carbonitrile] was tested, and the IC50 was 0.46 µM.
Work on C[C@@H]1CN(c2ccc(C#N)n3nccc23)C[C@H](CN2CCC(N)C(F)(F)C2)O1 (stereo partly drawn) [Example 34, 4-[(2S,6R)-2-[(4-amino-3,3-difluoro-1-piperidyl)methyl]-6-methyl-morpholin-4-yl]pyrazolo[1,5-a]pyridine-7-carbonitrile] yielded an IC50 of 0.087 µM.
C[C@@H]1CN(c2ccc(C#N)n3nccc23)C[C@H](CN2CC(N)C(F)(F)C2)O1 (stereo partly drawn) [Example 35, 4-[(2S,6R)-2-[(4-amino-3,3-difluoro-pyrrolidin-1-yl)methyl]-6-methyl-morpholin-4-yl]pyrazolo[1,5-a]pyridine-7-carbonitrile] gave an IC50 of 0.83 µM.
Work on C[C@@H]1CN(c2ccc(C#N)n3nccc23)C[C@H](CN2CC3CCC(C2)C3N)O1 (stereo partly drawn) [Example 36, 4-[(2S,6R)-2-[(8-amino-3-azabicyclo[3.2.1]octan-3-yl)methyl]-6-methyl-morpholin-4-yl]pyrazolo[1,5-a]pyridine-7-carbonitrile] yielded an IC50 of 0.038 µM.
C[C@@H]1CN(c2ccc(C#N)n3nccc23)C[C@H](CN2C3CCC2CC(N)C3)O1 (stereo partly drawn) [Example 37, 4-[(2S,6R)-2-[(3-amino-8-azabicyclo[3.2.1]octan-8-yl)methyl]-6-methyl-morpholin-4-yl]pyrazolo[1,5-a]pyridine-7-carbonitrile] showed an IC50 of 0.19 µM.
For C[C@@H]1CN(c2ccc(C#N)n3nccc23)C[C@H](CN2CCN[C@H](c3ccccc3)C2)O1 [Example 38, 4-[(2R,6S)-2-methyl-6-[[(3R)-3-phenylpiperazin-1-yl]methyl]morpholin-4-yl]pyrazolo[1,5-a]pyridine-7-carbonitrile], the IC50 was 0.12 µM.
C[C@@H]1CN(c2ccc(C#N)n3nccc23)C[C@H](CN2CCC(N3CCNCC3)CC2)O1 [Example 39, 4-[(2R,6S)-2-methyl-6-[(4-piperazin-1-yl-1-piperidyl)methyl]morpholin-4-yl]pyrazolo[1,5-a]pyridine-7-carbonitrile] showed an IC50 of 0.2 µM.
In the case of C[C@@H]1CN(c2ccc(C#N)n3nccc23)C[C@H](CN2CCNC3(CC3)C2)O1 [Example 40, 4-[(2S,6R)-2-(4,7-diazaspiro[2.5]octan-7-ylmethyl)-6-methyl-morpholin-4-yl]pyrazolo[1,5-a]pyridine-7-carbonitrile], the IC50 is reported as 0.095 µM.
With C[C@@H]1CN(c2ccc(C#N)n3nccc23)C[C@H](CN2CCC3NCCC3C2)O1 (stereo partly drawn) [Example 41, 4-[(2S,6R)-2-(1,2,3,3a,4,6,7,7a-octahydropyrrolo[3,2-c]pyridin-5-ylmethyl)-6-methyl-morpholin-4-yl]pyrazolo[1,5-a]pyridine-7-carbonitrile] the IC50 was 0.078 µM.
C[C@@H]1CN(c2ccc(C#N)n3nccc23)C[C@H](CN2CCC3(CCCCN3)C2)O1 (stereo partly drawn) [Example 42, 4-[(2S,6R)-2-(2,6-diazaspiro[4.5]decan-2-ylmethyl)-6-methyl-morpholin-4-yl]pyrazolo[1,5-a]pyridine-7-carbonitrile] gave an IC50 of 0.098 µM.
Work on C[C@@H]1CN(c2ccc(C#N)n3nccc23)C[C@H](CN2C3CCC2CNC3)O1 [Example 43, 4-[(2S,6R)-2-(3,8-diazabicyclo[3.2.1]octan-8-ylmethyl)-6-methyl-morpholin-4-yl]pyrazolo[1,5-a]pyridine-7-carbonitrile] yielded an IC50 of 0.059 µM.
C[C@@H]1CN(c2ccc(C#N)n3nccc23)C[C@H](CN2CCCC3(CCNC3)C2)O1 (stereo partly drawn) [Example 44, 4-[(2S,6R)-2-(2,7-diazaspiro[4.5]decan-7-ylmethyl)-6-methyl-morpholin-4-yl]pyrazolo[1,5-a]pyridine-7-carbonitrile] showed an IC50 of 0.24 µM.
For C[C@@H]1CN(c2ccc(C#N)n3nccc23)C[C@H](CN2CC3CCCNC3C2)O1 (stereo partly drawn) [Example 45, 4-[(2S,6R)-2-(1,2,3,4,4a,5,7,7a-octahydropyrrolo[3,4-b]pyridin-6-ylmethyl)-6-methyl-morpholin-4-yl]pyrazolo[1,5-a]pyridine-7-carbonitrile], the IC50 was 0.25 µM.
For C[C@@H]1CN(c2ccc(C#N)n3nccc23)C[C@H](CN2CC3(CCCNCC3)C2)O1 [Example 46, 4-[(2S,6R)-2-(2,8-diazaspiro[3.6]decan-2-ylmethyl)-6-methyl-morpholin-4-yl]pyrazolo[1,5-a]pyridine-7-carbonitrile], the IC50 was 0.6 µM.
Work on C[C@@H]1CN(c2ccc(C#N)n3nccc23)C[C@H](CN2CCC3(CCCCN3)CC2)O1 [Example 47, 4-[(2S,6R)-2-(1,9-diazaspiro[5.5]undecan-9-ylmethyl)-6-methyl-morpholin-4-yl]pyrazolo[1,5-a]pyridine-7-carbonitrile] yielded an IC50 of 0.18 µM.
With C[C@@H]1CN(c2ccc(C#N)n3nccc23)C[C@H](CN2CCC3(CCN3)CC2)O1 [Example 48, 4-[(2S,6R)-2-(1,7-diazaspiro[3.5]nonan-7-ylmethyl)-6-methyl-morpholin-4-yl]pyrazolo[1,5-a]pyridine-7-carbonitrile] the IC50 was 0.3 µM.
C[C@@H]1CN(c2ccc(C#N)n3nccc23)C[C@H](CN2CC3CCNCC3C2)O1 (stereo partly drawn) [Example 49, 4-[(2S,6R)-2-(1,3,3a,4,5,6,7,7a-octahydropyrrolo[3,4-c]pyridin-2-ylmethyl)-6-methyl-morpholin-4-yl]pyrazolo[1,5-a]pyridine-7-carbonitrile] showed an IC50 of 0.18 µM.
With CC1CC(N)CCN1C[C@H]1CN(c2ccc(C#N)n3nccc23)C[C@@H](C)O1 (stereo partly drawn) [Example 51, 4-[(2S,6R)-2-[(4-amino-2-methyl-1-piperidyl)methyl]-6-methyl-morpholin-4-yl]pyrazolo[1,5-a]pyridine-7-carbonitrile] the IC50 was 0.39 µM.
